According to US20250026778A1 (TIUMBIO CO., LTD., priority 2021, published 2025):
Like-named read-outs stand apart in the source and are kept apart here.

Molecular target: T1, his-galectin-3 (Homo sapiens, UniProt P17931)
T1 construct: purchased Abcam
Experiment: TR-FRET assay (in vitro galectin-3 binding inhibitory activity test)
Conditions: compound at 20 μM, 60 nM his-galectin-3, 15 nM biotin-ASF
Method in brief: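 Compound is premixed with his-galectin-3 (60 nM final), then biotin-ASF (15 nM), Tb anti-His antibody (2 nM) and streptavidin-d2 (20 nM) are added. After at least 3.5 hours at RT in HEPES/NaCl buffer with Tween 20 and BSA, TR-FRET is read at 615/665 nm. DMSO serves as the uninhibited control, ASF omission as background.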

[1] = Table 1, read-out: % Inhibitory activity (at 20 μM)
[2] = Table 2, read-out: % Inhibitory activity (at 20 μM)

T1 sequence (P17931 whole entry): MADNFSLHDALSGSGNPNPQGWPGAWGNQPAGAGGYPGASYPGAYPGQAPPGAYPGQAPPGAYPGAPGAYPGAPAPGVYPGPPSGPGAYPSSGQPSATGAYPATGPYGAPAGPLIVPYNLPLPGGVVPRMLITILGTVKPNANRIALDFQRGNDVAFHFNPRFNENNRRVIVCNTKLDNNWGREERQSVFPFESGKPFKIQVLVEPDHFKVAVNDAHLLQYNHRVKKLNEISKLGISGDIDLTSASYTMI

inhibition at 20 µM [1] [%] | inhibition at 20 µM [2] [%] | SMILES | other results
< 25 |  | OC[C@H]1O[C@@]2(CCCO2)[C@H](OCc2cccc(F)c2)[C@@H](n2cc(-c3cc(F)c(F)c(F)c3)nn2)[C@H]1O [Compound A91, (5S,7R,8R,9S,10R)-10-((3-fluorobenzyl)oxy)-7-(hydroxymethyl)-9-(4-(3,4,5-trifluorophenyl)-1H-1,2,3-triazol-1-yl)-1,6-dioxaspiro[4.5]decan-8-ol] | 
< 25 |  | OC[C@H]1O[C@]2(OCC[C@H]2NCc2ccc(Cl)cc2)[C@H](O)[C@@H](n2cc(-c3cc(F)c(F)c(F)c3)nn2)[C@H]1O [Compound A97, (4R,5S,7R,8R,9S,10R)-4-((4-chlorobenzyl)amino)-7-(hydroxymethyl)-9-(4-(3,4,5-trifluorophenyl)-1H-1,2,3-triazol-1-yl)-1,6-dioxaspiro[4.5]decane-8,10-diol] | 
 | 50 to 75 | CC1CO[C@@]2(C1)O[C@H](CO)[C@H](O)[C@H](n1cc(-c3cc(F)c(F)c(F)c3)nn1)[C@H]2OC(=O)c1ccccn1 (single isomer, unassigned) [Compound A235] | 
50 to 75 |  | O=C(Cc1cccc(F)c1)N[C@@H]1CCO[C@]12O[C@H](CO)[C@H](O)[C@H](n1cc(-c3cc(F)c(F)c(F)c3)nn1)[C@H]2O [Compound A113, N-((4R,5S,7R,8R,9S,10R)-8,10-dihydroxy-7-(hydroxymethyl)-9-(4-(3,4,5-trifluorophenyl)-1H-1,2,3-triazol-1-yl)-1,6-dioxaspiro[4.5]decan-4-yl)-2-(3-fluorophenyl)acetamide] | 
25 to 50 |  | OC[C@H]1OC2(CCCC2)[C@H](O)[C@@H](n2cc(-c3cc(F)c(F)c(F)c3)nn2)[C@H]1O [Compound A101, (7R,8R,9S,10R)-7-(hydroxymethyl)-9-(4-(3,4,5-trifluorophenyl)-1H-1,2,3-triazol-1-yl)-6-oxaspiro[4.5]decane-8,10-diol] | 
< 25 |  | O=C(c1cccnc1)N1CCC[C@]2(C1)O[C@H](CO)[C@H](O)[C@H](n1cc(-c3cc(F)c(F)c(F)c3)nn1)[C@H]2O [Compound A144, ((2R,3R,4S,5R,6R)-3,5-dihydroxy-2-(hydroxymethyl)-4-(4-(3,4,5-trifluorophenyl)-1H-1,2,3-triazol-1-yl)-1-oxa-8-azaspiro[5.5]undecan-8-yl)(pyridin-3-yl)methanone] | 
 |  | Cc1ccc(S(=O)(=O)O[C@@H]2[C@@H](n3cc(-c4cc(F)c(F)c(F)c4)nn3)[C@@H](O)[C@@H](CO)O[C@@]23CCCO3)cc1 [Compound A59, (5S,7R,8R,9S,10R)-8-hydroxy-7-(hydroxymethyl)-9-(4-(3,4,5-trifluorophenyl)-1H-1,2,3-triazol-1-yl)-1,6-dioxaspiro[4.5]decan-10-yl 4-methylbenzenesulfonate] | inhibition at 20 µM (read-out: % Inhibitory activity (at 20 μM), Table 1): 25 to 50%
25 to 50 |  | OC[C@H]1O[C@@]2(CCCO2)[C@H](OCc2ccccn2)[C@@H](n2cc(-c3cc(F)c(F)c(F)c3)nn2)[C@H]1O [Compound A17, (5S,7R,8R,9S,10R)-7-(hydroxymethyl)-10-(pyridin-2-ylmethoxy)-9-(4-(3,4,5-trifluorophenyl)-1H-1,2,3-triazol-1-yl)-1,6-dioxaspiro[4.5]decan-8-ol] | 
 | 50 to 75 | O=C(N[C@@H]1CCO[C@]12O[C@H](CO)[C@H](O)[C@H](n1cc(-c3cc(F)c(F)c(F)c3)nn1)[C@H]2O)c1cccc(-c2cccc(Cl)c2)c1 [Compound A166, 3′-chloro-N-((4R,5S,7R,8R,9S,10R)-8,10-dihydroxy-7-(hydroxymethyl)-9-(4-(3,4,5-trifluorophenyl)-1H-1,2,3-triazol-1-yl)-1,6-dioxaspiro[4.5]decan-4-yl)-[1.1′-biphenyl]-3-carboxamide] | 
 | 25 to 50 | O=C(N[C@@H]1CCO[C@]12O[C@H](CO)[C@H](O)[C@H](n1cc(-c3cc(F)c(F)c(F)c3)nn1)[C@H]2O)c1ccc2cc(Cl)ccc2c1 [Compound A173, 6-chloro-N-((4R,5S,7R,8R,9S,10R)-8,10-dihydroxy-7-(hydroxymethyl)-9-(4-(3,4,5-trifluorophenyl)-1H-1,2,3-triazol-1-yl)-1,6-dioxaspiro[4.5]decan-4-yl)-2-naphthamide] | 
 | > 75 | O=C(N[C@@H]1CCO[C@]12O[C@H](CO)[C@H](O)[C@H](n1cc(-c3cc(F)c(F)c(F)c3)nn1)[C@H]2O)c1c[nH]c2cccc(Cl)c12 [Compound A232, 4-chloro-N-((4R,5S,7R,8R,9S,10R)-8,10-dihydroxy-7-(hydroxymethyl)-9-(4-(3,4,5-trifluorophenyl)-1H-1,2,3-triazol-1-yl)-1,6-dioxaspiro[4.5]decan-4-yl)-1H-indole-3-carboxamide] | 
50 to 75 |  | OC[C@H]1O[C@]2(OCC[C@H]2NCc2ccc(Cl)o2)[C@H](O)[C@@H](n2cc(-c3cc(F)c(F)c(F)c3)nn2)[C@H]1O [Compound A128, (4R,5S,7R,8R,9S,10R)-4-(((5-chlorofuran-2-yl)methyl)amino)-7-(hydroxymethyl)-9-(4-(3,4,5-trifluorophenyl)-1H-1,2,3-triazol-1-yl)-1,6-dioxaspiro[4.5]decane-8,10-diol] | 
50 to 75 |  | O=C(Cc1ccc(Cl)cc1)N[C@@H]1CCO[C@]12O[C@H](CO)[C@H](O)[C@H](n1cc(-c3cc(F)c(F)c(F)c3)nn1)[C@H]2O [Compound A117, 2-(4-chlorophenyl)-N-((4R,5S,7R,8R,9S,10R)-8,10-dihydroxy-7-(hydroxymethyl)-9-(4-(3,4,5-trifluorophenyl)-1H-1,2,3-triazol-1-yl)-1,6-dioxaspiro[4.5]decan-4-yl)acetamide] | 
 | > 75 | O=C(N[C@@H]1CCO[C@]12O[C@H](CO)[C@H](O)[C@H](n1cc(-c3cc(F)c(F)c(F)c3)nn1)[C@H]2O)c1cccc2ccc(Cl)cc12 [Compound A256, 7-chloro-N-((4R,5S,7R,8R,9S,10R)-8,10-dihydroxy-7-(hydroxymethyl)-9-(4-(3,4,5-trifluorophenyl)-1H-1,2,3-triazol-1-yl)-1,6-dioxaspiro[4.5]decan-4-yl)-1-naphthamide] | 
 | < 25 | OC[C@H]1O[C@@]2(CCCN(c3ccccc3Cl)C2)[C@H](O)[C@@H](n2cc(-c3cc(F)c(F)c(F)c3)nn2)[C@H]1O [Compound A222, (2R,3R,4S,5R,6R)-8-(2-chlorophenyl)-2-(hydroxymethyl)-4-(4-(3,4,5-trifluorophenyl)-1H-1,2,3-triazol-1-yl)-1-oxa-8-azaspiro[5.5]undecane-3,5-diol] | 
50 to 75 |  | O=C(N[C@@H]1CCO[C@]12O[C@H](CO)[C@H](O)[C@H](n1cc(-c3cc(F)c(F)c(F)c3)nn1)[C@H]2O)c1ccc2ccccc2c1 [Compound A129, N-((4R,5S,7R,8R,9S,10R)-8,10-dihydroxy-7-(hydroxymethyl)-9-(4-(3,4,5-trifluorophenyl)-1H-1,2,3-triazol-1-yl)-1,6-dioxaspiro[4.5]decan-4-yl)-2-naphthamide] | 
 | 50 to 75 | O=C(N[C@@H]1CCO[C@]12O[C@H](CO)[C@H](O)[C@H](n1cc(-c3cc(F)c(F)c(F)c3)nn1)[C@H]2O)c1cccc2c1CCCC2 [Compound A158, N-((4R,5S,7R,8R,9S,10R)-8,10-dihydroxy-7-(hydroxymethyl)-9-(4-(3,4,5-trifluorophenyl)-1H-1,2,3-triazol-1-yl)-1,6-dioxaspiro[4.5]decan-4-yl)-5,6,7,8-tetrahydronaphthalene-1-carboxamide] | 
 | 50 to 75 | CC1CO[C@@]2(C1)O[C@H](CO)[C@H](O)[C@H](n1cc(-c3cc(F)c(F)c(F)c3)nn1)[C@H]2OCC(=O)O (single isomer, unassigned) [Compound A236] | 
 |  | O=C(Cc1ccccc1)N1CCC[C@]2(C1)O[C@H](CO)[C@H](O)[C@H](n1cc(-c3cc(F)c(F)c(F)c3)nn1)[C@H]2O [Compound A184, 1-((2R,3R,4S,5R,6R)-3,5-dihydroxy-2-(hydroxymethyl)-4-(4-(3,4,5-trifluorophenyl)-1H-1,2,3-triazol-1-yl)-1-oxa-8-azaspiro[5.5]undecan-8-yl)-2-phenylethanone] | inhibition at 20 µM (read-out: % Inhibitory activity (at 20 μM), Table 2): < 25%
 | > 75 | Cc1ccc(C(=O)N[C@@H]2CCO[C@]23O[C@H](CO)[C@H](O)[C@H](n2cc(-c4cc(F)c(F)c(F)c4)nn2)[C@H]3O)c2ccccc12 [Compound A243, N-((4R,5S,7R,8R,9S,10R)-8,10-dihydroxy-7-(hydroxymethyl)-9-(4-(3,4,5-trifluorophenyl)-1H-1,2,3-triazol-1-yl)-1,6-dioxaspiro[4.5]decan-4-yl)-4-methyl-1-naphthamide] | 
 | < 25 | OC[C@H]1O[C@@]2(CCCN(c3cccs3)C2)[C@H](O)[C@@H](n2cc(-c3cc(F)c(F)c(F)c3)nn2)[C@H]1O [Compound A225, (2R,3R,4S,5R,6R)-2-(hydroxymethyl)-8-(thiophen-2-yl)-4-(4-(3,4,5-trifluorophenyl)-1H-1,2,3-triazol-1-yl)-1-oxa-8-azaspiro[5.5]undecane-3,5-diol] | 
25 to 50 |  | COc1cccc(C(=O)O[C@@H]2[C@@H](n3cc(-c4cc(F)c(F)c(F)c4)nn3)[C@@H](O)[C@@H](CO)O[C@@]23CCCO3)c1 [Compound A40, (5S,7R,8R,9S,10R)-8-hydroxy-7-(hydroxymethyl)-9-(4-(3,4,5-trifluorophenyl)-1H-1,2,3-triazol-1-yl)-1,6-dioxaspiro[4.5]decan-10-yl 3-methoxybenzoate] | 
 | > 75 | O=C(N[C@@H]1CCO[C@]12O[C@H](CO)[C@H](O)[C@H](n1cc(-c3cc(F)c(F)c(F)c3)nn1)[C@H]2O)c1coc2cccc(Br)c12 [Compound A250, 4-bromo-N-((4R,5S,7R,8R,9S,10R)-8,10-dihydroxy-7-(hydroxymethyl)-9-(4-(3,4,5-trifluorophenyl)-1H-1,2,3-triazol-1-yl)-1,6-dioxaspiro[4.5]decan-4-yl)benzofuran-3-carboxamide] | 
